Type in all cases: cell-based
In experiment [1] the test system is MDA-MB-231 human breast cancer cell line. Description: Cell growth inhibition assay (methylene blue), MDA-MB-231. An excerpt:
(§1) The following human breast cancer cell lines were obtained from the ATCC. Cells were maintained according to ATCC-recommended culture conditions. AU565 (ATCC Catalog No. ATCC Catalog. No. CRL-2351), BT-20 (ATCC Catalog No. HTB-19), MCF7 (ATCC Catalog No. HTB22), MDA-MB-231 (ATCC Catalog No. HTB-26), MDA-MB-435 (ATCC Catalog No. HTB-129), MDA-MB-468 (ATCC Catalog No. HTB-132), HCC38 (ATCC Catalog No. CRL-2314), HCC70 (ATCC Catalog No. CRL-2315), HCC1143 (ATCC Catalog No. CRL-2321), HCC1428 (ATCC Catalog No. CRL-2327), HCC1500 (ATCC Catalog No. CRL-2329), HCC1806 (ATCC Catalog No. CRL-2335), HCC1954 (ATCC Catalog No. CRL-2338), HCC2218 (ATCC Catalog No. CRL-2343), UACC-812 (ATCC Catalog No. CRL-1897), UACC-893 (ATCC Catalog No. CRL-1902), ZR-75-1 (ATCC Catalog No. CRL-1500), ZR-75-30 (ATCC Catalog No. CRL-1504).
(§2) Cultured human breast cancer cells were placed in 96-well plates and grown in the continuous presence of test compounds for 4 or 7 days. To expose the cells to test compounds for 7 days, medium was replaced with fresh medium containing compounds after 4 days of exposure and cells were incubated for 3 additional days. Cell growth was assessed using modifications (Amin et al., Cancer Res., 47:6040-6045, 1987; incorporated herein by reference) of a methylene blue-based microculture assay (Finlay et al., Anal. Biochem., 139:272-277, 1984; incorporated herein by reference).
(§3) To investigate the possible expression of PgP by the cell lines used in this study, the antiproliferative effects of paclitaxel were determined in the presence and absence of verapamil, a known inhibitor of PgP.

In experiment [2] the test system is HCC1806 human breast cancer cell line. In words: Cell growth inhibition assay (methylene blue), HCC1806.
Excerpt: as §1, §2, §3

Experiment [3] deals with HCC1954 human breast cancer cell line. Description: Cell growth inhibition assay (methylene blue), HCC1954.
Excerpt: as §1, §2, §3

Experiment [4] relates to UACC-812 human breast cancer cell line. In words: Cell growth inhibition assay (methylene blue), UACC-812.
Excerpt: as §1, §2, §3

Experiment [5] deals with UACC-893 human breast cancer cell line. In words: Cell growth inhibition assay (methylene blue), UACC-893.
Excerpt: as §1, §2, §3

Experiment [6] has as its system panel of 19 human breast cancer cell lines. In words: Cell growth inhibition assay, panel of 19 human breast cancer cell lines. To be noted: panel of 19 human breast cancer cell lines.
Excerpt: as §1, §2
Antiproliferative effects of four tubulin-binding anticancer agents were evaluated by a methylene blue-based cell growth inhibin assay in a panel of 19 human breast cancer cell lines. The following agents were used in this study: halichondrin analog E7389, hemiasterlin analog E7974, vinblastine, and paclitaxel. Each IC50 determination was conducted in at least three separate experiments. A presence of multidrug resistance efflux pump (P-glycoprotein or PgP) could markedly affect sensitivity of cell lines to test agents and thus mask correlations between beta-tubulin expression and cell lines' sensitivity to test agents. Cell lines were therefore tested for evidence of PgP expression by monitoring effects of the PgP blocker verapamil (used at a 10 μM concentration) on paclitaxel sensitivity. No evidence for PgP expression was found in any of the cell lines tested (Table 4). […] Inter-drug correlations were seen between sensitivities to the three microtubule polymerization inhibitors E7974, E7389, and vinblastine, but not between the microtubule polymerization stabilizer paclitaxel.

Setting [7] is: +10 μM verapamil (PgP blocker), read-out: Paclitaxel IC50 (+10 μM verapamil).
Where [8] appears, read: continuous presence of compound 4 or 7 days, at least three experiments, read-out: Average IC50.
The mark [9] stands for this setting: no verapamil, read-out: Paclitaxel IC50 (no verapamil).

SMILES strings stand for the structures. Read-outs that look alike come from different tables or passages of the source.

On to `CC(=O)O[C@H]1C(=O)[C@@]2(C)[C@H]([C@H](OC(=O)c3ccccc3)[C@]3(O)C[C@H](OC(=O)[C@H](O)[C@@H](NC(=O)c4ccccc4)c4ccccc4)C(C)=C1C3(C)C)[C@]1(OC(C)=O)CO[C@@H]1C[C@@H]2O` [Paclitaxel, paclitaxel], for which the IC50 turned out to be 5.1 nM in experiment [1] (setting [7]); 5.07 nM in experiment [1] (setting [8]); 4.9 nM in experiment [1] (setting [9]); 1.9 nM in experiment [2] (HCC-1806, +10 μM verapamil (PgP blocker), read-out: Paclitaxel IC50 (+10 μM verapamil)); 1.8 nM in experiment [2] (HCC-1806, no verapamil, read-out: Paclitaxel IC50 (no verapamil)); 2.1 nM in experiment [2] (setting [8]). Moreover, the IC50 in experiment [3] (HCC-1954, +10 μM verapamil (PgP blocker), read-out: Paclitaxel IC50 (+10 μM verapamil)) came out at 11.7 nM; in experiment [3] (HCC-1954, no verapamil, read-out: Paclitaxel IC50 (no verapamil)), 11.7 nM; in experiment [3] (setting [8]) it was 8.48 nM; in experiment [4] (setting [7]), 1.9 nM; in experiment [4] (setting [8]) it was 1.46 nM; in experiment [4] (setting [9]), 2.7 nM. Further, the figures for the concentration for half-maximal inhibition (IC50) in experiment [5] (setting [7]), in experiment [5] (setting [8]) and in experiment [5] (setting [9]) were 4.1 nM, 2.73 nM and 6.3 nM, respectively. The “fold-difference between IC50's in the most sensitive and the least sensitive cell line” value in experiment [6] turned out to be 5.8 fold.

(Values after patent US20060148014A1, “Tubulin isotype screening in cancer therapy using hemiasterlin analogs” (priority 2004, published 2006).)
